The source of these data is ChEMBL document CHEMBL4825774, “Sulfonylamide Compounds as CDK2 Inhibitors for Treating Cancer” (ACS Med Chem Lett, 2021).

Where only a bound is given, the exact number is not on record here.

This experiment has as its target Cyclin-dependent kinase 2/cyclin E1 (Homo sapiens, UniProt P24941). Kind of experiment: Inhibition of human GST-tagged CDK2/FLAG-Cyclin E1 (unknown origin) expressed in baculovirus expression system incubated for 60 mins by HTRF enzyme activity assay. In general terms: TR-FRET usually uses a lanthanide donor and a delayed reading to cut background.
For `CNS(=O)(=O)c1ccc(Nc2ncc3c(n2)N([C@@H]2CCC[C@H]2C)C(=O)C32CC2)cc1`, the IC50 is ≤ 0.05 µM.

Turning to `CC[C@@H](N1C(=O)C2(CC2)c2cnc(Nc3ccc(S(=O)(=O)NC)cc3)nc21)C(F)(F)F`, the IC50 was ≤ 0.05 µM.

As to `CC1(NS(=O)(=O)c2ccc(Nc3ncc4c(n3)N([C@@H]3CCC[C@]3(C)O)C(=O)C43CC3)cc2)CNC1`, the IC50 is ≤ 0.05 µM.

Turning to `CC1CCCC1N1C(=O)C2(CC2)c2cnc(Nc3ccc(S(=O)(=O)N[C@@H]4CCCN(C)C4)cc3)nc21` (stereo partly specified), the IC50 is ≤ 0.05 µM.

In the case of `CN(C)CCNS(=O)(=O)c1ccc(Nc2ncc3c(n2)N(c2cc(F)ccc2Cl)C(=O)C32CC2)cc1`, the IC50 is ≤ 0.05 µM.

Regarding `CNS(=O)(=O)c1ccc(Nc2ncc3c(n2)N(c2cc4c(cc2Cl)CNCC4)C(=O)C32CC2)cc1`, the IC50 was ≤ 0.05 µM.

For orientation: IC50 means the concentration needed to halve the response being measured. A high value points to weaker potency.
